Test results: PubChem BioAssay (NCI)
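Cultured in 96-well plates, cells were exposed to test compound for 48 hours across five concentrations. TGI: concentration producing complete growth inhibition.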

What was measured:
Experiment in all cases: growth of human tumour cells (NCI), 48 h
[1] = system: NCI-H23 lung
[2] = system: SK-OV-3 ovarian
[3] = system: 786-0 renal
[4] = system: M14 melanoma
[5] = system: SW-620 colon
[6] = system: SF-268 CNS
[7] = system: OVCAR-3 ovarian
[8] = system: SNB-78 CNS
[9] = system: NCI-H460 lung
[10] = system: SF-539 CNS
[11] = system: U251 CNS
[12] = system: MALME-3M melanoma
[13] = system: UACC-257 melanoma
[14] = system: SK-MEL-5 melanoma
[15] = system: RPMI-8226 leukemia
[16] = system: HT29 colon
[17] = system: K-562 leukemia
[18] = system: SK-MEL-28 melanoma
[19] = system: LOX IMVI melanoma
[20] = system: SK-MEL-2 melanoma
[21] = system: HOP-92 NSCLC
[22] = system: IGROV1 ovarian
[23] = system: LXFL 529 NSCLC
[24] = system: CCRF-CEM leukemia
[25] = system: XF 498 CNS
[26] = system: HCT-15 colon
[27] = system: A549 NSCLC
[28] = system: NCI-H226 lung
[29] = system: COLO 205 colon
[30] = system: EKVX NSCLC
[31] = system: HOP-18 NSCLC
[32] = system: KM20L2 colon
[33] = system: RXF 393 renal
[34] = system: OVCAR-4 ovarian
[35] = system: M19-MEL melanoma
[36] = system: DLD-1 colon
[37] = system: HOP-62 NSCLC
[38] = system: MOLT-4 leukemia
[39] = system: SNB-19 CNS
[40] = system: UACC-62 melanoma
[41] = system: ACHN renal
[42] = system: RXF-631 renal
[43] = system: SN12C renal
[44] = system: SF-295 CNS
[45] = system: A498 renal
[46] = system: OVCAR-8 ovarian
[47] = system: KM12 colon
[48] = system: UO-31 renal
[49] = system: HCT-116 colon
[50] = system: DMS 114 small cell lung
[51] = system: HL-60(TB) leukemia
[52] = system: NCI-H522 lung
[53] = system: OVCAR-5 ovarian
[54] = system: HCC-2998 colon
[55] = system: SNB-75 CNS
[56] = system: TK-10 renal
[57] = system: DMS 273 small cell lung

Measured: TGI

N#CC(C(=O)/C(=N\NC(N)=O)C(C#N)c1ccc(Cl)cc1)c1ccc(Cl)cc1 (stereo not given)
not listed: [54] | [55] | [56] | [57]
> 100 µM: all other assays above

CCOC(=O)c1ccc(/C(C)=N/NC(N)=S)cc1
not listed: [6] | [12] | [13] | [16] | [20] | [28] | [47] | [48] | [52] | [53]
> 100 µM: all other assays above
